# Patent US20190231785A1, “PHOSPHODIESTERASE INHIBITOR TREATMENT” (Cyrano Therapeutics, Inc., priority 2012, published 2019)
# Marks after values point to notes of the source that are not given here.
# Tests used:
# patients with hyposmia [1] = assay: Side effects of oral theophylline (Example 1); type: in vivo, human; conditions: divided doses in middle of meals
# Excerpt: Patients were required to take the drug in divided doses in middle of meals (breakfast and lunch).
# patients with hyposmia [2] = assay: Classification of patients as improved or unimproved on theophylline (Example 2); type: in vivo, human
# Protocol: All patients were placed in a fixed design open label clinical trial with treatment with oral theophylline. Treatment consisted of fixed treatment periods of two-eight months with sequential doses of the drug at 200 mg, 400 mg and 600 mg. At termination of each of these intervals, patients returned to study site for reevaluation. At the end of each interval subjective responses to treatment were measured with a modification of the 0-100 scale previously used (vs). Subjective responses to treatment were graded on a sliding scale from −100-0-+100 with patients recording improvement (+0-+100), no improvement (0) or worsening (0-−100) of their overall smell function. If overall smell function improved ≥5% they were considered to improve clinically (1). If smell function improved <5% they were considered not to improve (1). At the end of each interval subjective measurements of smell function, measurements of DT, RT, ME and H and measurements of parotid saliva for levels of cAMP and cGMP were obtained. In addition, blood plasma was obtained by venipuncture, placed in ice into zinc free tubes which contained 100 mg zinc free heparin, centrifuged at 3000 rpm for 10-20 min, the plasma transferred to plastic PCR tubes and stored at −20° C. until assayed. Theophylline was assayed by a fluorescence polarization assay (Abbott, Chicago, Ill.), as previously described.
# Data for the cyclic nucleotides from these 31 patients was not analyzed until the entire study of the 312 patients in Example 1 was assembled and analyzed in its entirety. After completion of these analyses, all data for parotid saliva cAMP and cGMP from all patients in whom salivary cAMP and cGMP were obtained were assembled. Levels of salivary cyclic nucleotides varied widely. Initially, without external criteria, there was no way to understand these disparate data. […] In a similar manner, measurements of each patient's plasma theophylline level at each dosage of theophylline (at 200 mg, 400 mg, 600 mg of theophylline) were categorized. The two patient groups were also analyzed post hoc with respect to type of smell loss and etiology of smell loss.
# Differences in the characteristics between these two patient groups were analyzed with respect to each measurement obtained (Mean±SEM). Differences between mean±SEM were analyzed using Student t test and X2; differences of p≤5% were considered significant.
# [3] = tested on: patients with hyposmia and hypogeusia; conditions: oral 200 to 800 mg/d
# Protocol: (§1) Smell and taste functions under each study condition were measured by standardized psychophysical sensory testing techniques. Measurements included determination of detection thresholds (DTs), recognition thresholds (RTs), magnitude estimation (ME), and hedonic response (HR) for 4 odors (e.g., pyridine [dead fish], nitrobenzene [bitter almond], thiophene [petroleum], and amyl acetate [banana oil]) (olfactometry) and for 4 tastants (e.g., sodium chloride [salt], sucrose [sweet], hydrochloride [sour], and urea [bitter]) (gustometry). […] Each measurement was performed independent of any prior knowledge of response.
# (§2) Values for the oral trial were taken from the last measurements made before discontinuation of oral drug treatment and before initiation of the intranasal trial. This period varied from 2 to 12 months after oral treatment initiation and reflected the maximal improvement in sensory function each patient experienced.
# (§3) The mean and standard error of the mean for all values obtained at each study condition were compared. Differences were considered significant if P<0.05 by the unpaired t test. Paired comparison tests were also used with differences considered significant if P<0.05 by the t test.
# [4] = tested on: patients with hyposmia and hypogeusia; conditions: oral 200 to 800 mg/d; remark: listed apart in the source
# Protocol: as §1, §2, §3
# [5] = of 31 patients on oral theophylline 200-600 mg
structure (smiles),measurement,setting,value
Cn1c(=O)c2[nH]cnc2n(C)c1=O [theophylline],side effects among patients,patients with hyposmia [1],generally minimal
same,patients identified as having improved smell function,patients with hyposmia [2]; [5],20 patients
same,patients who did not improve,patients with hyposmia [2]; [5],11 patients
same,improved patients exhibiting Type II hyposmia,"patients with hyposmia [2]; oral theophylline, Example 2",95%
same,"patient number, improved, etiology PIHH","patients with hyposmia [2]; oral theophylline, Example 2",6
same,"patient number, improved, etiology allergic rhinitis (AR)","patients with hyposmia [2]; oral theophylline, Example 2",8
same,"patient number, improved, etiology head injury (HI)","patients with hyposmia [2]; oral theophylline, Example 2",3
same,"patient number, improved, etiology other","patients with hyposmia [2]; oral theophylline, Example 2",3
same,"patient number, improved, smell loss Type I","patients with hyposmia [2]; oral theophylline, Example 2",1
same,"patient number, improved, smell loss Type II","patients with hyposmia [2]; oral theophylline, Example 2",19^a
same,"patient number, unimproved, etiology PIHH","patients with hyposmia [2]; oral theophylline, Example 2",0
same,"patient number, unimproved, etiology allergic rhinitis (AR)","patients with hyposmia [2]; oral theophylline, Example 2",8
same,"patient number, unimproved, etiology head injury (HI)","patients with hyposmia [2]; oral theophylline, Example 2",3
same,"patient number, unimproved, etiology other","patients with hyposmia [2]; oral theophylline, Example 2",0
same,"patient number, unimproved, smell loss Type I","patients with hyposmia [2]; oral theophylline, Example 2",4
same,"patient number, unimproved, smell loss Type II","patients with hyposmia [2]; oral theophylline, Example 2",7
same,unimproved patients exhibiting Type I hyposmia,"patients with hyposmia [2]; oral theophylline, Example 2",57%
same,hypogeusia (gustometry overall),[3],improved after 2 to 12 months of treatment
same,"DTs for sucrose and hydrochloride and RTs for sodium chloride, hydrochloride and urea",[3]; 2 to 12 months,decreased (more sensitive)
same,HR for hydrochloride and urea,[3]; 2 to 12 months,increased (more unpleasant)
same,magnitude estimations for all tastants,[3]; 2 to 12 months,increased (more sensitive)
same,hyposmia (olfactometry overall),[4],improved with 2 to 12 months of treatment
same,DTs and RTs for all odorants,[4]; 2 to 12 months,decreased (more sensitive)
same,HRs for all odorants,[4]; 2 to 12 months,increased
same,MEs for all odorants,[4]; 2 to 12 months,increased (more sensitive)
